# Assay results from patent publication US9290570B2, “Pan-ELR+ CXC Chemokine Antibodies” (Eli Lilly and Company, priority 2013, dated 2016).
# What was measured:
# [1] = test system: SKOV3-Luc ovarian cancer cells; experiment: SKOV3-Luc ovarian cancer xenograft model; type: in vivo, mice; conditions: cisplatin 2.5 mg/kg, Antibody 1 20 mg/kg once a week intraperitoneal
# Description: SKOV3-Luc is a human ovary cancer cell line that expresses firefly luciferase gene. SKOV3-Luc cells are often used in vivo to establish human ovarian adenocarcinoma tumor growth.
# SKOV3-Luc ovarian cancer cells were mixed 1:1 with matrigel and implanted subcutaneously in the right rear flank of athymic nude female mice at 3.0×10^6 cells per injection. Mice were randomized into 4 groups at baseline according to tumor volume after the xenografts were grown to an average tumor volume of 200 mm^3 Mice received either control IgG4 antibody (2.5 mg/kg once a week), cisplatin (2.5 mg/kg once a week), Antibody 1 (20 mg/kg once a week), or a combination of cisplatin (2.5 mg·kg once a week) and Antibody 1 (20 mg/kg once a week) by intraperitoneal injection.
# human CXCR2 = biological target: T1, human CXCR2 (Homo sapiens, UniProt P25025); experiment: U937-huCXCR2 FLIPR activity of wild type and mutant human CXCL8; type: cell-based; conditions: activity of the CXCL8 variant itself on U937-huCXCR2 cells
# T1 construct: expressed in transfected cells; host or cells: U937 monocytic cell line, retrovirally transduced (U937-huCXCR2)
# T1 sequence (P25025 1-360): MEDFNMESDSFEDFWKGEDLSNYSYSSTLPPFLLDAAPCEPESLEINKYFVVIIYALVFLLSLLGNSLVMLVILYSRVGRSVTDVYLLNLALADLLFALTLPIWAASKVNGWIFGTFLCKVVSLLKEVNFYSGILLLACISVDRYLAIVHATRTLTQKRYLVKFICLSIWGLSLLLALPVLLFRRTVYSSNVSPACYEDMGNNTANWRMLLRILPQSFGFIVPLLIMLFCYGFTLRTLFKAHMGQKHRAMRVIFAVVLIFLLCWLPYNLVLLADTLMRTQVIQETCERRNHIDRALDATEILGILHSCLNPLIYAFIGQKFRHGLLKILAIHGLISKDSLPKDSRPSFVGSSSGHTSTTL
# Description: Wild type and mutant human CXCL8 are tested for biologic activity and for neutralization by Antibody 1 using the U937-huCXCR2 assay. U937-huCXCR2 is a monocytic cell line transduced with retrovirus for expression of human CXCR2. A description of the U937-huCXCR2 assay is found below under Neutralizing Assays.
# CXCL8 mutants are serially diluted in Assay Buffer containing 0.2% BSA in wells of v-bottom 96-well polypropylene plates. Ligand concentrations are 3 times the final assay concentration (final assay concentrations range from 300 to 0.0051 nM). A cell plate and a ligand plate are loaded into a Fluorescent Imaging Plate Reader (FLIPR-3, Molecular Devices) programmed to transfer 50 μL of ligand to wells of the cell plate. Fluorescence is recorded at 1 second intervals for 90 seconds. The change in fluorescence [delta relative fluorescence units (DRFU), Max RFU-Min RFU] is calculated from images 10 to 90. DRFU versus log (ligand concentration) is plotted and EC50 values are determined by nonlinear regression using Graph Pad Prism. Assays are performed in triplicate over three assay plates.
Molecule,tumor growth inhibition compared to isotype control [1],U937 FLIPR activity (EC50) (human CXCR2)
"N.N.[Cl][Pt][Cl] [Cisplatin, cisplatin]",did not show statistically significant tumor growth inhibition,
R6A: R6A point mutant of human CXCL8 (SEQ ID NO: 27) [Antibody R6A],,Not Active
